Several values for one entry are separate records, joined by “and”; a condition that tells them apart may be missing. Equal entries are not always repeated. Where a SMILES comes first, the peptide text is derived from it. [ ]: non-standard residue; d: D form. pGlu = O=C1CC[C@@H](C(=O)O)N1
How the values were obtained:
[1] = CAP-GDF15 plasma concentration after administration; assay type: in vivo, mouse; conditions: for Plasma concentration after administration (Supplementary Figure 5a): 50 mg/kg, unit not given
Method: To test this possibility, we administered a single dose of CAP-GDF15 (50 mg/kg, intraperitoneally) to diet-induced obese mice and measured whole body parameters of energy balance in metabolic chambers. At this dose, concentrations of plasma CAP-GDF15 rose by 5-fold from baseline at 30 min post-administration (Supplementary Fig. 5A). […] A corresponding and expected suppression of respiratory exchange ratio (RER) was also observed (Fig. 5c).
(§1) Supplementary Figure 5. Additional measurements from metabolic chambers of mice treated with CAP-GDF15. a CAP-GDF15 plasma concentration after administration of CAP-GDF15 (50 mg/kg, intraperitoneal) or vehicle control. b-c VO2 (b) and VCO2 (c) of 12-16-week diet-induced obese male mice following a single treatment of CAP-GDF15 (50 mg/kg, intraperitoneal) or vehicle control. d-e VO2 (d) and VCO2 (e) of 12-16-week diet-induced obese male mice following a single treatment of scrambled CAP-GDF15 (50 mg/kg, intraperitoneal, scrambled sequence: p[…]-NH2) or vehicle control. f Acute food intake of 12-16-week diet-induced obese male mice following a single treatment of CAP-GDF15 (50 mg/kg, intraperitoneal), uncapped CAP-GDF15 (50 mg/kg, intraperitoneal), or vehicle control. For (a), N=3/group; (b-c), N=12/group; for (d-e), N=8/group; for (f), N=5/group.
(§2) For (a-f), injection occurred at time T=0 (5:00pm). Data are shown as means ± SEM. For (b-i), p values were calculated by two-way ANOVA. Source data are provided as a Source Data

[2] = tested on: diet-induced obese male mice; test: Metabolic chamber studies after a single dose (food intake, RER, movement, VO2, VCO2); assay type: in vivo, mouse; conditions: single dose 50 mg/kg intraperitoneal
Method: Fig. 5 Functional studies of […] in feeding and energy balance in mice. a Schematic of the primary amino acid sequence for full-length mouse GDF15 preproprotein and annotation of CAP-GDF15 sequence as well as the canonical GDF15 hormone sequence. b–d Food intake (b), respiratory exchange ratio (RER, c), and ambulatory activity (d) of 12–16-week diet-induced obese male mice following a single treatment of CAP-GDF15 (50 mg/kg, intraperitoneal) or vehicle control. e–g Food intake (e), RER (f), and ambulatory activity (g) of 12–16-week diet-induced obese male mice following a single treatment of scrambled CAP-GDF15 (50 mg/kg, intraperitoneal, scrambled sequence: pGlu-[…]-NH2) or vehicle control. h, i 3-day food intake (h) and body weight (i) of 12–16-week diet-induced obese male mice following treatment with CAP-GDF15 or scrambled CAP-GDF15 (50 mg/kg/day, IP), or vehicle control. […] For (b-i), p values were calculated by two-way ANOVA. Source data are provided as a Source Data file.
Animal experiments were performed according to a procedure approved by the Stanford University Administrative Panel on Laboratory Animal Care. Mice were maintained in 12-h light-dark cycles at 22 °C and about 50% relative humidity and fed a standard irradiated rodent diet. Where indicated, a high-fat diet (D12492, Research Diets 60% kcal from fat) was used. Male C57BL/6 J (stock number 000664) and male C57BL/6 J DIO mice were purchased from the Jackson Laboratory (stock number 380050). For studies in high-fat diet-fed mice, peptides were dissolved in 18:1:1 (by volume) of saline:Kolliphor EL (Sigma Aldrich):DMSO and administered to mice by intraperitoneal injections at a volume of 10 µl/g at the indicated doses for the indicated times. For lipopolysacchardide injection, LPS (Sigma, #L2880-10MG) was dissolved in saline and administered to mice at a volume of 5 µl/g at indicated dose. For fasting, food was removed from mice for 16 h. For running, a six-lane Columbus Instruments animal treadmill (product 1055-SRM-D65) was used with following 1 h protocol: 10 min at 6 m/min, 50 min at 18 m/min, and increase every 2 min by 2 m/min for the last 10 minutes, all at 12° incline. For all treatment experiments, mice were mock injected with the vehicle for 3–5 days until body weights were stabilized. Heparin plasma was harvested by submandibular bleed. For all experiments, mice were randomly assigned to treatment groups. Experimenters were not blinded to groups.
For acute energy expenditure studies, food intake, RER, movement, VO2, and VCO2 were collected with CLAMS Oxymax Metabolic Cages. Mice were placed in individual metabolic cages for 24 hours prior to experiment. Mice were injected with either vehicle, 50 mg/kg CAP-GDF15, 50 mg/kg uncapped CAP-GDF15, or 50 mg/kg scrambled CAP-GDF15 at 5 pm at T = 0. […] All experiments were done with 3–5 month old DIO mice (Jackson, stock 380050), fed high-fat diet ad libitum.
as §1, §2

[3] = diet-induced obese male mice, N = 12/group

SMILES: CC(C)C[C@H](NC(=O)[C@@H]1CCC(=O)N1)C(=O)N[C@@H](CCC(=O)O)C(=O)N[C@@H](CC(C)C)C(=O)N[C@@H](CCCNC(=N)N)C(=O)N[C@@H](CC(C)C)C(=O)N[C@@H](CCCNC(=N)N)C(=O)N[C@H](C(=O)N[C@@H](C)C(=O)N[C@@H](C)C(=O)NCC(=O)N[C@@H](CCCNC(=N)N)C(N)=O)C(C)C [CAP-GDF15] ([pGlu]LELRLRVAAGR-NH2)
- rise of plasma CAP-GDF15 concentration from baseline ([1]; 50 mg/kg intraperitoneal, 30 min post-administration, N = 3/group): ~ 5 fold and 5 fold
- Plasma concentration after administration (Supplementary Figure 5a) ([1]; 0 minutes (same values as vehicle), animal 1): 2.565
- Plasma concentration after administration (Supplementary Figure 5a) ([1]; 0 minutes (same values as vehicle), animal 2): 0.7876
- Plasma concentration after administration (Supplementary Figure 5a) ([1]; 0 minutes (same values as vehicle), animal 3): 0.4564
- Plasma concentration after administration (Supplementary Figure 5a) ([1]; 10 minutes, animal 1): 3.639
- Plasma concentration after administration (Supplementary Figure 5a) ([1]; 10 minutes, animal 2): 4.514
- Plasma concentration after administration (Supplementary Figure 5a) ([1]; 10 minutes, animal 3): 3.221
- Plasma concentration after administration (Supplementary Figure 5a) ([1]; 30 minutes, animal 1): 2.641
- Plasma concentration after administration (Supplementary Figure 5a) ([1]; 30 minutes, animal 2): 3.3984
- Plasma concentration after administration (Supplementary Figure 5a) ([1]; 30 minutes, animal 3): 2.342
- Plasma concentration after administration (Supplementary Figure 5a) ([1]; 60 minutes, animal 1): 0.6432
- Plasma concentration after administration (Supplementary Figure 5a) ([1]; 60 minutes, animal 2): 0.7838
- Plasma concentration after administration (Supplementary Figure 5a) ([1]; 60 minutes, animal 3): 0.7186
- Cmax ([1]; mouse, plasma, ip, 50 mg/kg intraperitoneal, from approximately 1 nM endogenous level, read-out: maximum plasma concentration after dosing, as read from the figure by a reviewer): 4 nM
- suppression of food intake compared to vehicle-treated mice ([2]; 12–16-week diet-induced obese male mice, 16 h after injection, N = 12 mice/group): ~ 60%
- effect on carbon dioxide production (VCO2) [2, 3]: did not alter
- effect on oxygen consumption (VO2) [2, 3]: did not alter
- effect on movement (ambulatory activity) ([2]; diet-induced obese male mice, N = 12 mice/group): did not alter
- effect on respiratory exchange ratio (RER) ([2]; diet-induced obese male mice, metabolic chambers): suppression

— article PMC10709327, “A class of secreted mammalian peptides with potential to expand cell-cell communication” (Nature Communications, 2023)
